Data published in patent US20240415914A1, “Water Dispersible Cannabinoid Compositions” (priority 2021, published 2024).
Read-outs that look alike come from different tables or passages of the source.

Key:
[1] = format: physicochemical; settings: stored at room temperature (21-25° C.)
Procedure: At each time period, 0.05 g of powder was dissolved in 10 ml-15 of ethanol, diluted to fall within the analytical range, and injected into the LCMSMS for analysis.

[2] = Stability of cannabinoid and Vitamin E components of Beverage 2 (AB Red) stored at 8° C. and 21-25° C., LCMSMS over 570 days
Procedure: The LCMSMS was calibrated for 0-50 ng/ml cannabinoids with the same resin material used in the preparation of the concentrates. At each time period, 100 μml of beverage was diluted with 10 ml of methanol and injected into the LCMSMS for analysis.

CCCCCc1cc2c(c(O)c1C(=O)O)[C@@H]1C=C(C)CC[C@H]1C(C)(C)O2 [D9 THCA, delta-9-tetrahydrocannabinolic acid]
1.27 µg/mL: Stability of Cannabinoids in AB Red ([2]; 21-25° C., 270 days) | Stability of Cannabinoids in AB Red ([2]; 21-25° C., 300 days) | Stability of Cannabinoids in AB Red ([2]; 21-25° C., 510 days)
1.24 µg/mL: Stability of Cannabinoids in AB Red ([2]; 8° C., 570 days) | Stability of Cannabinoids in AB Red ([2]; 21-25° C., 570 days)
1.34 µg/mL: Stability of Cannabinoids in AB Red ([2]; 8° C., 1 days) | Stability of Cannabinoids in AB Red ([2]; 8° C., 2 days) | Stability of Cannabinoids in AB Red ([2]; 8° C., 17 days) | Stability of Cannabinoids in AB Red ([2]; 8° C., 22 days) | Stability of Cannabinoids in AB Red ([2]; 8° C., 25 days) | Stability of Cannabinoids in AB Red ([2]; 8° C., 90 days) | Stability of Cannabinoids in AB Red ([2]; 8° C., 150 days) | Stability of Cannabinoids in AB Red ([2]; 8° C., 330 days) | Stability of Cannabinoids in AB Red ([2]; 21-25° C., 1 days) | Stability of Cannabinoids in AB Red ([2]; 21-25° C., 22 days) | Stability of Cannabinoids in AB Red ([2]; 21-25° C., 30 days) | Stability of Cannabinoids in AB Red ([2]; 21-25° C., 90 days) | Stability of Cannabinoids in AB Red ([2]; 21-25° C., 120 days)
1.33 µg/mL: Stability of Cannabinoids in AB Red ([2]; 8° C., 15 days) | Stability of Cannabinoids in AB Red ([2]; 8° C., 23 days) | Stability of Cannabinoids in AB Red ([2]; 8° C., 24 days) | Stability of Cannabinoids in AB Red ([2]; 8° C., 26 days) | Stability of Cannabinoids in AB Red ([2]; 8° C., 210 days) | Stability of Cannabinoids in AB Red ([2]; 8° C., 270 days) | Stability of Cannabinoids in AB Red ([2]; 21-25° C., 10 days) | Stability of Cannabinoids in AB Red ([2]; 21-25° C., 11 days) | Stability of Cannabinoids in AB Red ([2]; 21-25° C., 12 days) | Stability of Cannabinoids in AB Red ([2]; 21-25° C., 29 days) | Stability of Cannabinoids in AB Red ([2]; 21-25° C., 210 days)
0.151 mg/g powder: Stability in Powder Concentrate (content by LCMSMS) ([1]; day 9) | Stability in Powder Concentrate (content by LCMSMS) ([1]; day 15) | Stability in Powder Concentrate (content by LCMSMS) ([1]; day 30) | Stability in Powder Concentrate (content by LCMSMS) ([1]; day 210)
0.155 mg/g powder: Stability in Powder Concentrate (content by LCMSMS) ([1]; day 360) | Stability in Powder Concentrate (content by LCMSMS) ([1]; day 450)
0.152 mg/g powder: Stability in Powder Concentrate (content by LCMSMS) ([1]; day 12) | Stability in Powder Concentrate (content by LCMSMS) ([1]; day 29)
0.157 mg/g powder: Stability in Powder Concentrate (content by LCMSMS) ([1]; day 16)
0.145 mg/g powder: Stability in Powder Concentrate (content by LCMSMS) ([1]; day 11)
1.29 µg/mL: Stability of Cannabinoids in AB Red ([2]; 8° C., 390 days) | Stability of Cannabinoids in AB Red ([2]; 8° C., 420 days) | Stability of Cannabinoids in AB Red ([2]; 21-25° C., 480 days) | Stability of Cannabinoids in AB Red ([2]; 21-25° C., 540 days)
1.26 µg/mL: Stability of Cannabinoids in AB Red ([2]; 8° C., 540 days) | Stability of Cannabinoids in AB Red ([2]; 21-25° C., 390 days) | Stability of Cannabinoids in AB Red ([2]; 21-25° C., 420 days)
0.156 mg/g powder: Stability in Powder Concentrate (content by LCMSMS) ([1]; day 8) | Stability in Powder Concentrate (content by LCMSMS) ([1]; day 17) | Stability in Powder Concentrate (content by LCMSMS) ([1]; day 300) | Stability in Powder Concentrate (content by LCMSMS) ([1]; day 330)
0.148 mg/g powder: Stability in Powder Concentrate (content by LCMSMS) ([1]; day 10) | Stability in Powder Concentrate (content by LCMSMS) ([1]; day 240) | Stability in Powder Concentrate (content by LCMSMS) ([1]; day 270) | Stability in Powder Concentrate (content by LCMSMS) ([1]; day 570)
1.36 µg/mL: Stability of Cannabinoids in AB Red ([2]; 8° C., 5 days) | Stability of Cannabinoids in AB Red ([2]; 8° C., 9 days) | Stability of Cannabinoids in AB Red ([2]; 21-25° C., 5 days) | Stability of Cannabinoids in AB Red ([2]; 21-25° C., 8 days) | Stability of Cannabinoids in AB Red ([2]; 21-25° C., 16 days) | Stability of Cannabinoids in AB Red ([2]; 21-25° C., 18 days) | Stability of Cannabinoids in AB Red ([2]; 21-25° C., 23 days)
1.25 µg/mL: Stability of Cannabinoids in AB Red ([2]; 8° C., 510 days)
1.32 µg/mL: Stability of Cannabinoids in AB Red ([2]; 8° C., 12 days) | Stability of Cannabinoids in AB Red ([2]; 8° C., 19 days) | Stability of Cannabinoids in AB Red ([2]; 8° C., 60 days) | Stability of Cannabinoids in AB Red ([2]; 8° C., 240 days) | Stability of Cannabinoids in AB Red ([2]; 21-25° C., 3 days) | Stability of Cannabinoids in AB Red ([2]; 21-25° C., 26 days)
0.147 mg/g powder: Stability in Powder Concentrate (content by LCMSMS) ([1]; day 2) | Stability in Powder Concentrate (content by LCMSMS) ([1]; day 23) | Stability in Powder Concentrate (content by LCMSMS) ([1]; day 90) | Stability in Powder Concentrate (content by LCMSMS) ([1]; day 120)
0.153 mg/g powder: Stability in Powder Concentrate (content by LCMSMS) ([1]; day 150) | Stability in Powder Concentrate (content by LCMSMS) ([1]; day 390)
1.31 µg/mL: Stability of Cannabinoids in AB Red ([2]; 8° C., 16 days) | Stability of Cannabinoids in AB Red ([2]; 8° C., 30 days) | Stability of Cannabinoids in AB Red ([2]; 8° C., 450 days) | Stability of Cannabinoids in AB Red ([2]; 21-25° C., 19 days) | Stability of Cannabinoids in AB Red ([2]; 21-25° C., 240 days) | Stability of Cannabinoids in AB Red ([2]; 21-25° C., 450 days)
0.146 mg/g powder: Stability in Powder Concentrate (content by LCMSMS) ([1]; day 5) | Stability in Powder Concentrate (content by LCMSMS) ([1]; day 19) | Stability in Powder Concentrate (content by LCMSMS) ([1]; day 60)
1.28 µg/mL: Stability of Cannabinoids in AB Red ([2]; 8° C., 480 days) | Stability of Cannabinoids in AB Red ([2]; 21-25° C., 60 days) | Stability of Cannabinoids in AB Red ([2]; 21-25° C., 150 days) | Stability of Cannabinoids in AB Red ([2]; 21-25° C., 330 days)
0.149 mg/g powder: Stability in Powder Concentrate (content by LCMSMS) ([1]; day 18) | Stability in Powder Concentrate (content by LCMSMS) ([1]; day 480)
0.154 mg/g powder: Stability in Powder Concentrate (content by LCMSMS) ([1]; day 180) | Stability in Powder Concentrate (content by LCMSMS) ([1]; day 420) | Stability in Powder Concentrate (content by LCMSMS) ([1]; day 510) | Stability in Powder Concentrate (content by LCMSMS) ([1]; day 540)
1.35 µg/mL: Stability of Cannabinoids in AB Red ([2]; 8° C., 0 days) | Stability of Cannabinoids in AB Red ([2]; 8° C., 3 days) | Stability of Cannabinoids in AB Red ([2]; 8° C., 8 days) | Stability of Cannabinoids in AB Red ([2]; 8° C., 10 days) | Stability of Cannabinoids in AB Red ([2]; 8° C., 11 days) | Stability of Cannabinoids in AB Red ([2]; 8° C., 18 days) | Stability of Cannabinoids in AB Red ([2]; 8° C., 29 days) | Stability of Cannabinoids in AB Red ([2]; 21-25° C., 0 days) | Stability of Cannabinoids in AB Red ([2]; 21-25° C., 9 days) | Stability of Cannabinoids in AB Red ([2]; 21-25° C., 17 days) | Stability of Cannabinoids in AB Red ([2]; 21-25° C., 25 days)
0.150 mg/g powder: Stability in Powder Concentrate (content by LCMSMS) ([1]; day 0) | Stability in Powder Concentrate (content by LCMSMS) ([1]; day 1) | Stability in Powder Concentrate (content by LCMSMS) ([1]; day 3) | Stability in Powder Concentrate (content by LCMSMS) ([1]; day 22) | Stability in Powder Concentrate (content by LCMSMS) ([1]; day 24) | Stability in Powder Concentrate (content by LCMSMS) ([1]; day 25) | Stability in Powder Concentrate (content by LCMSMS) ([1]; day 26)
1.30 µg/mL: Stability of Cannabinoids in AB Red ([2]; 8° C., 120 days) | Stability of Cannabinoids in AB Red ([2]; 8° C., 180 days) | Stability of Cannabinoids in AB Red ([2]; 8° C., 300 days) | Stability of Cannabinoids in AB Red ([2]; 21-25° C., 2 days) | Stability of Cannabinoids in AB Red ([2]; 21-25° C., 15 days) | Stability of Cannabinoids in AB Red ([2]; 21-25° C., 24 days) | Stability of Cannabinoids in AB Red ([2]; 21-25° C., 180 days)
